In patent US6414017B2, “Inhibition of hair growth” (The Gillette Company, priority 1993, dated 2002):

Tested on: hair growth of flank organs
Assay: hamster flank organ hair mass assay (reduction of hair growth)
Format: in vivo, Male intact Golden Syrian hamsters
Conditions: for reducing hair growth (result in words): vehicle and test not given
Procedure: These organs produce hair in response to androgens in the hamster. To evaluate the effectiveness of a particular inhibitor in reducing hair growth, the flank organs of each of a group of hamsters are depilated by applying a thioglycolate based chemical depilatory (Surgex). To one organ of each animal 10 μl. of vehicle alone once a day is applied, while to the other organ of each animal an equal amount of vehicle containing the inhibitor is applied. After thirteen applications (one application per day for five days a week), the flank organs are shaved and the amount of recovered hair (hair mass) from each is weighed. […] Some preferred inhibitors were tested according to the above procedure.

[1] = Table 3: 5% in Vehicle A, pH 7.5
[2] = Table 3: 10% in Vehicle A, pH 7.5
[3] = Table 3: 10% in Vehicle F, pH 5.5
[4] = Table 3: 15% in Vehicle A, pH 7.5
[5] = Table 3: 20% in Vehicle A, pH 8.0
[6] = Table 3: 20% in Vehicle B, pH 7.0
[7] = Table 3: 20% in Vehicle F, pH 5.5

With `Cc1c(C)c2c(c(C)c1O)CCC(C)(CCCC(C)CCCC(C)CCCC(C)C)O2` (racemic) [dl-α-tocopherol] the “reducing hair growth (result in words)” value was “effective in reducing hair growth”.
`O=C(O)C=Cc1ccc(O)c(O)c1` [Caffeic acid, 3,4-dihydroxycinnamic acid] was tested, and the “Hair Mass Treated” value (Dose 15%, Vehicle H, pH 4.0, thirteen applications) was 0.797 ± .13 mg, the “Percent Inhibition” value (Dose 15%, Vehicle H, pH 4.0, vs vehicle treated side) was 62 ± 7% and the “reducing hair growth (result in words)” value was “effective in reducing hair growth”.
With `CC(C(=O)O)c1ccc2c(c1)[nH]c1ccc(Cl)cc12` (stereo not drawn) [Carprofen, 6-chloro-α-methylcarbazole-2-acetic acid] the “Hair Mass Treated” value (Dose 20%, Vehicle C, pH 6.0, thirteen applications) was 0.776 ± .11 mg and the “Percent Inhibition” value (Dose 20%, Vehicle C, pH 6.0, vs vehicle treated side) was 29.69%.
`COc1ccc2c(c1)c(CC(=O)O)c(C)n2C(=O)c1ccc(Cl)cc1` [Indomethacin, 1-[p-chlorobenzoyl]-5-methoxy-2-methylindole-3-acetic acid] was tested, and the “Hair Mass Treated” value [1] was 1.248 ± .20 mg, the “Percent Inhibition” value [1] was 43.41 ± 7.75% and the “Hair Mass Treated” value [2] was 1.084 ± .11 mg. The “Percent Inhibition” value [2] was 53.32 ± 4.17%, the “Hair Mass Treated” value [3] was 0.679 ± .08 mg and the “Percent Inhibition” value [3] was 49.89 ± 5.54%. The “Hair Mass Treated” value [4] was 0.768 ± .10 mg, the “Percent Inhibition” value [4] was 68.77 ± 3.02% and the “Hair Mass Treated” value [5] was 0.307 ± .08 mg. For the same molecule, the “Percent Inhibition” value [5] was 83.78 ± 3.66%, the “Hair Mass Treated” value [6] was 0.261 ± .01 mg and the “Percent Inhibition” value [6] was 83.37 ± 1.46%. The “Hair Mass Treated” value [7] was 0.324 ± .08 mg and the “Percent Inhibition” value [7] was 78.43 ± 4.39%.
`Cc1cccc(Nc2ccccc2C(=O)O)c1C` [Mefenamic acid, 2-[(2,3-dimethylphenyl)amino]benzoic acid] was tested, and the “Hair Mass Treated” value (Dose 10%, Vehicle A, pH 8.8, thirteen applications) was 0.518 ± .13 mg and the “Percent Inhibition” value (Dose 10%, Vehicle A, pH 8.8, vs vehicle treated side) was 67.18%.
With `CC(Cc1ccc(O)c(O)c1)C(C)Cc1ccc(O)c(O)c1` (stereo not drawn) [NDGA, nordihydroguaiaretic acid] the “Hair Mass Treated” value (Dose 10%, Vehicle B, pH 6.5, thirteen applications) was 0.450 ± .11 mg, the “Percent Inhibition” value (Dose 10%, Vehicle B, pH 6.5, vs vehicle treated side) was 81 ± 4% and the “reducing hair growth (result in words)” value was “effective in reducing hair growth”.
For `COc1ccc2cc(CCC(C)=O)ccc2c1` [Nabumetone, 4-[6-methoxy-2-naphthyl]-2-butanone], the “Hair Mass Treated” value (Dose 15%, Vehicle E, pH 6.0, thirteen applications) was 1.267 ± .23 mg and the “Percent Inhibition” value (Dose 15%, Vehicle E, pH 6.0, vs vehicle treated side) was 23.23%.
In the case of `CCCOC(=O)c1cc(O)c(O)c(O)c1` [Propyl gallate, propyl gallate], the “reducing hair growth (result in words)” value is reported as “effective in reducing hair growth”.
With `O=c1c(O)c(-c2ccc(O)c(O)c2)oc2cc(O)cc(O)c12` [Quercetin, 3,3′,4′,5,7-pentahydroxy flavone] the “Hair Mass Treated” value (Dose 5%, Vehicle G, pH 6.0, thirteen applications) was 1.100 ± .10 mg, the “Percent Inhibition” value (Dose 5%, Vehicle G, pH 6.0, vs vehicle treated side) was 27 ± 6% and the “Hair Mass Treated” value (Dose 10%, Vehicle E, pH 5.5, thirteen applications) was 0.419 ± .07 mg. The “Percent Inhibition” value (Dose 10%, Vehicle E, pH 5.5, vs vehicle treated side) was 83 ± 4% and the “reducing hair growth (result in words)” value was “effective in reducing hair growth”.
In the case of `CN1C(C(=O)Nc2ccccn2)=C(O)c2sccc2S1(=O)=O` [Tenoxican, 4-hydroxy-2-methyl-N-2-pyridinyl-2H-thieno[2,3-e]-1,2-thiazine-3-carboxamide-1,1-dioxide], the “Hair Mass Treated” value (Dose 15%, Vehicle B, pH 8.0, thirteen applications) is reported as 0.326 ± .08 mg and the “Percent Inhibition” value (Dose 15%, Vehicle B, pH 8.0, vs vehicle treated side) is reported as 85.38%.
With `O=c1cc(-c2ccc(O)cc2)oc2cc(O)cc(O)c12` [apigenin, 4′,5,7-trihydroxy flavone] the “reducing hair growth (result in words)” value was “effective in reducing hair growth”.
